Results on four substances are retold here after patent US8288387B2, “Napthalimide-benzimidazole hybrids as potential antitumor agents and process for the preparation thereof” (Council of Scientific & Industrial Research, priority 2008, dated 2012).

The subject of one assay is HS 578T. The assay can be described thus: NCI in vitro anticancer SRB assay, HS 578T. In kind it is cell-based, human. The settings on record: Breast Cancer. On the procedure: (§1) Anticancer activity: In vitro biological activity studies were carried out at the National Cancer Institute (USA).
(§2) The compounds 5a-b evaluated for in vitro anticancer activity against sixty human tumour cells derived from nine cancer types (leukemia, non-small-cell lung, colon, CNS, melanoma, ovarian, prostate, and breast cancer) as shown in Table 1. For each compound, dose response curves for each cell line were measured at a minimum of five concentrations at 10 fold dilutions. A protocol of 48 h continuous drug exposure was used and a sulforhodamine B (SRB) protein assay was used to estimate cell viability or growth. The concentration causing 50% cell growth inhibition (GI50), total cell growth inhibition (TGI 0% growth) and 50% cell death (LC50, −50% growth) compared with the control was calculated. […] The MG MID of log TGI and log LC50 have shown similar pattern to the log GI50 MG MID. The other compounds 9a-c evaluated for in vitro one dose anticancer activity against nine human tumor cell panels containing sixty cell lines in percent growth inhibition values are listed in Table 3.
In general terms: In SRB staining, fixed cells bind dye roughly in proportion to their protein.

A further assay relates to sixty human tumour cells. The assay can be described thus: In vitro cytotoxicity, mean graph midpoints over all cell lines. In kind it is cell-based. The settings on record: mean graph midpoint. The protocol:
as §1, §2

The test system of a further assay is RXF 393. The assay can be described thus: NCI in vitro anticancer SRB assay, RXF 393. In kind it is cell-based, human. The note with it: RXF 393, Renal Cancer. On the procedure: as §1, §2
The test system of another assay is BT-549. The assay can be described thus: NCI in vitro anticancer SRB assay, BT-549. In kind it is cell-based, human. The note with it: BT-549, Breast Cancer. The protocol:
as §1, §2

In another assay the test system is SK-MEL-5. The assay can be described thus: NCI in vitro anticancer SRB assay, SK-MEL-5. The note with it: SK-MEL-5, Melanoma. Format: cell-based, human. The protocol:
as §1, §2

Another assay deals with 786-0. The assay can be described thus: NCI in vitro anticancer SRB assay, 786-0. The settings on record: 786-0, Renal Cancer. In kind it is cell-based, human. On the procedure: as §1, §2
The subject of another assay is KM12. The assay can be described thus: NCI in vitro anticancer SRB assay, KM12. In kind it is cell-based, human. The note with it: KM12, Colon Cancer. The protocol: as §1, §2
Assay [1] concerns T-47D. The assay can be described thus: NCI in vitro anticancer SRB assay, T-47D. In kind it is cell-based, human. The settings on record: Breast Cancer. On the procedure: as §1, §2
Another assay concerns K-562. The assay can be described thus: NCI in vitro anticancer SRB assay, K-562. In kind it is cell-based, human. The settings on record: K-562, Leukemia. The protocol:
as §1, §2

Another assay deals with U251. The assay can be described thus: NCI in vitro anticancer SRB assay, U251. The note with it: U251, CNS Cancer. Format: cell-based, human. On the procedure: as §1, §2
For a further assay, the system named is SK-MEL-28. The assay can be described thus: NCI in vitro anticancer SRB assay, SK-MEL-28. In kind it is cell-based, human. The settings on record: SK-MEL-28, Melanoma. On the procedure:
as §1, §2

The next assay deals with NCI-H322M. The assay can be described thus: NCI in vitro anticancer SRB assay, NCI-H322M. Format: cell-based, human. The note with it: Non-Small Cell Lung Cancer. On the procedure:
as §1, §2

The next assay deals with MALME-3M. The assay can be described thus: NCI in vitro anticancer SRB assay, MALME-3M. Format: cell-based, human. The settings on record: Melanoma. On the procedure:
as §1, §2

The next assay relates to MDA-MB-231/ATCC. The assay can be described thus: NCI in vitro anticancer SRB assay, MDA-MB-231/ATCC. In kind it is cell-based, human. The settings on record: Breast Cancer. The protocol:
as §1, §2

In the next assay the test system is DU 145. The assay can be described thus: NCI in vitro anticancer SRB assay, DU 145. The settings on record: DU 145, Prostate Cancer. In kind it is cell-based, human. On the procedure: as §1, §2
In a further assay the test system is MCF7. The assay can be described thus: NCI in vitro anticancer SRB assay, MCF7. Format: cell-based, human. The note with it: MCF7, Breast Cancer. On the procedure: as §1, §2
The subject of another assay is EKVX. The assay can be described thus: NCI in vitro anticancer SRB assay, EKVX. In kind it is cell-based, human. The note with it: Non-Small Cell Lung Cancer. The protocol: as §1, §2
Another assay relates to HCT-116. The assay can be described thus: NCI in vitro anticancer SRB assay, HCT-116. In kind it is cell-based, human. The settings on record: HCT-116, Colon Cancer; 48 h drug exposure, SRB. On the procedure: as §1, §2
The next assay has as its system SW-620. The assay can be described thus: NCI in vitro anticancer SRB assay, SW-620. In kind it is cell-based, human. The note with it: SW-620, Colon Cancer. On the procedure:
as §1, §2

The next assay concerns SF-539. The assay can be described thus: NCI in vitro anticancer SRB assay, SF-539. In kind it is cell-based, human. The settings on record: SF-539, CNS Cancer. On the procedure:
as §1, §2

In the next assay the test system is OVCAR-4. The assay can be described thus: NCI in vitro anticancer SRB assay, OVCAR-4. The note with it: OVCAR-4, Ovarian Cancer. In kind it is cell-based, human. The protocol: as §1, §2
Another assay concerns OVCAR8. The assay can be described thus: In vitro one dose primary anticancer assay, OVCAR8. In kind it is cell-based, human. The settings on record: Ovarian (OVCAR8), 10^−5 Molar concentration. On the procedure:
as §1, §2

Another assay concerns SF-295. The assay can be described thus: In vitro one dose primary anticancer assay, SF-295. Format: cell-based, human. The note with it: CNS (SF-295), 10^−5 Molar concentration. On the procedure: as §1, §2
The subject of another assay is HL-60. The assay can be described thus: In vitro one dose primary anticancer assay, HL-60. In kind it is cell-based, human. The note with it: Leukemia (HL-60), 10^−5 Molar concentration. On the procedure:
as §1, §2

A further assay has as its system UO-31. The assay can be described thus: In vitro one dose primary anticancer assay, UO-31. In kind it is cell-based, human. The settings on record: Renal (UO-31), 10^−5 Molar concentration. The protocol: as §1, §2
Assay [2] concerns T-47D. The assay can be described thus: In vitro one dose primary anticancer assay, T-47D. The settings on record: Breast (T-47D), 10^−5 Molar concentration. In kind it is cell-based, human. On the procedure:
as §1, §2

A word on the GI50: it is the concentration at which growth is held to half of that of the control. A high value points to less potent growth inhibition.

As for “2-{4-[4-(6-morpholino-2-benzimidazolyl)phenoxy]butyl}naphthalimide [Compound 5b]”, the GI50 in the assay on HS 578T (48 h drug exposure, SRB) stood at 990 nM; in the assay on HS 578T (repeat test values), 4680 nM; in the assay on RXF 393 (48 h drug exposure, SRB), 850 nM; in the assay with RXF 393 (repeat test values) it was 340 nM; in the assay on BT-549 (48 h drug exposure, SRB) it was 1450 nM; in the assay on BT-549 (repeat test values), 1540 nM. Besides, the 50% growth inhibitory concentration (GI50) in the assay on SK-MEL-5 (48 h drug exposure, SRB) came to 1440 nM; in the assay with SK-MEL-5 (repeat test values) it was 1770 nM; with 786-0 (48 h drug exposure, SRB), 1210 nM; with 786-0 (repeat test values) it was 1370 nM; in the assay with KM12 (48 h drug exposure, SRB), 1.14 µM; in the assay on KM12 (repeat test values), 7.25 µM. The 50% growth inhibitory concentration (GI50) with T-47D [1] (48 h drug exposure, SRB) is 2.2 µM; in the assay on T-47D [1] (repeat test values), 4.32 µM; with K-562 (48 h drug exposure, SRB), 2.97 µM; with K-562 (repeat test values) it was 3.25 µM; in the assay on U251 (48 h drug exposure, SRB), 1410 nM; in the assay on U251 (repeat test values) it was 1660 nM. For the same substance, the 50% growth inhibitory concentration (GI50) was determined as 1300 nM in the assay on SK-MEL-28 (48 h drug exposure, SRB); 1560 nM in the assay with SK-MEL-28 (repeat test values); 0.11 µM with NCI-H322M (48 h drug exposure, SRB); 40.7 µM in the assay on NCI-H322M (repeat test values); 90 nM in the assay with MALME-3M (48 h drug exposure, SRB); 3340 nM in the assay with MALME-3M (repeat test values). Besides, the GI50 stood at 2.51 µM in the assay on MDA-MB-231/ATCC (48 h drug exposure, SRB); 4.25 µM in the assay on MDA-MB-231/ATCC (repeat test values); 3.27 µM in the assay on DU 145 (48 h drug exposure, SRB); 4.56 µM in the assay on DU 145 (repeat test values); 3330 nM in the assay with MCF7 (48 h drug exposure, SRB); 2560 nM in the assay with MCF7 (repeat test values). Besides, the GI50 amounted to 12.2 µM with EKVX (48 h drug exposure, SRB); 25.4 µM in the assay on EKVX (repeat test values); 1760 nM in the assay on HCT-116; 3.19 µM in the assay with SW-620 (48 h drug exposure, SRB); 4.49 µM in the assay with SW-620 (repeat test values); 1700 nM in the assay on SF-539 (48 h drug exposure, SRB). The GI50 was 1600 nM with SF-539 (repeat test values); 1470 nM with OVCAR-4 (48 h drug exposure, SRB); 2210 nM in the assay on OVCAR-4 (repeat test values). Also, the “Log LC50 MG MID” value in the assay with sixty human tumour cells (log10 of drug concentration causing 50% cell death (−50%)) is −4.46; with sixty human tumour cells (repeated test values), −4.27. Also, the “Log TGI MG MID” value in the assay with sixty human tumour cells (log10 of drug concentration causing total cell growth inhibition (0% growth)) is listed as −4.94; in the assay on sixty human tumour cells (repeated test values), −4.71. Besides, the results for the “Log GI50 MG MID” value in the assay with sixty human tumour cells (log10 of drug molar concentration causing 50% cell growth inhibition) and with sixty human tumour cells (repeated test values) were −5.54 and −5.35, respectively.

On to “2-{5-[4-(5-[4-(6-morpholino-2-benzimidazolyl)phenoxy]pentyl)piperazino]pentyl}napthalimide [Compound 9c]”, for which the “% GI (percent growth inhibition)” value in the assay with OVCAR8 is reported as 89%; in the assay with SF-295 it was 84%; in the assay with HL-60, 97%; in the assay with UO-31, 96%; in the assay on T-47D [2] it was 99%.

Take “2-{4-[4-(4-[4-(6-[4-methylpiperazino]-2-benzimidazolyl)phenoxy]butyl)piperazino]butyl}napthalimide [Compound 9a]”: the “% GI (percent growth inhibition)” value with OVCAR8 is recorded as 77%; in the assay with SF-295, 71%; in the assay on HL-60, 84%; in the assay with UO-31, 85%; in the assay with T-47D [2], 64%.

As for “2-{4-[4-(4-[4-(6-morpholino-2-benzimidazolyl)phenoxy]butyl)piperazino]butyl}napthalimide [Compound 9b]”, the “% GI (percent growth inhibition)” value in the assay on OVCAR8 came out at 78%; with SF-295, 50%; in the assay on HL-60, 50%; with UO-31, 68%; in the assay with T-47D [2] it was 50%.
